Assay results: ChEMBL document CHEMBL3758095, “Preliminary evaluation of fluoro-pegylated benzyloxybenzenes for quantification of β-amyloid plaques by positron emission tomography” (Eur J Med Chem, 2015)
Blank lines part the entries; values can stand above or below the molecule they belong to. The source made the active and inactive calls. No cut-off for these calls is given here.

Assays:
[1] = Partition coefficient, log D of the compound; assay type: physicochemical; conditions: octanol/water
Stomach [2] = experiment: Biodistribution in iv dosed ICR mouse stomach assessed per organ measured at 60 mins; assay type: ADME, organism-based; conditions: in vivo, 1 h
Stomach [3] = experiment: Biodistribution in iv dosed ICR mouse stomach assessed per organ measured at 10 mins; assay type: ADME, organism-based; conditions: in vivo
Intestine [4] = experiment: Biodistribution in iv dosed ICR mouse intestine assessed per organ measured at 2 mins; assay type: ADME, organism-based; conditions: in vivo
Intestine [5] = experiment: Biodistribution in iv dosed ICR mouse intestine assessed per organ measured at 10 mins; assay type: ADME, organism-based; conditions: in vivo
Intestine [6] = experiment: Biodistribution in iv dosed ICR mouse intestine assessed per organ measured at 30 mins; assay type: ADME, organism-based; conditions: in vivo, 0.5 h
Intestine [7] = experiment: Biodistribution in iv dosed ICR mouse intestine assessed per organ measured at 60 mins; assay type: ADME, organism-based; conditions: in vivo, 1 h
Stomach [8] = experiment: Biodistribution in iv dosed ICR mouse stomach assessed per organ measured at 2 mins; assay type: ADME, organism-based; conditions: in vivo
Stomach [9] = experiment: Biodistribution in iv dosed ICR mouse stomach assessed per organ measured at 30 mins; assay type: ADME, organism-based; conditions: in vivo, 0.5 h
Liver [10] = experiment: Biodistribution in iv dosed ICR mouse liver measured at 10 mins; assay type: ADME, organism-based; conditions: in vivo
Brain [11] = experiment: Biodistribution in iv dosed ICR mouse brain measured at 2 mins; assay type: ADME, organism-based; conditions: in vivo
[12] = target: T1, Amyloid-beta precursor protein (Homo sapiens, UniProt P05067); experiment: Displacement of [125I]BOB-4 from Amyloid beta (1 to 42) (unknown origin)
[13] = Metabolic stability in ICR mouse plasma assessed as compound remaining at 35 to 45 Mbq, iv measured at 60 mins by HPLC analysis; assay type: ADME, organism-based; conditions: read-out: Stability
[14] = Metabolic stability in ICR mouse plasma assessed as compound remaining at 35 to 45 Mbq, iv measured at 30 mins by HPLC analysis; assay type: ADME, organism-based; conditions: read-out: Stability
Brain [15] = experiment: Ratio of drug level in iv dosed ICR mouse brain at 2 to 60 mins; assay type: ADME, organism-based; conditions: in vivo
[16] = Metabolic stability in ICR mouse brain assessed as compound remaining at 35 to 45 Mbq, iv measured at 2 mins by HPLC analysis; assay type: ADME, organism-based; conditions: read-out: Stability
[17] = Metabolic stability in ICR mouse liver assessed as compound remaining at 35 to 45 Mbq, iv measured at 30 mins by HPLC analysis; assay type: ADME, organism-based; conditions: read-out: Stability
[18] = Metabolic stability in ICR mouse brain assessed as compound remaining at 35 to 45 Mbq, iv measured at 30 mins by HPLC analysis; assay type: ADME, organism-based; conditions: read-out: Stability
[19] = Metabolic stability in ICR mouse plasma assessed as compound remaining at 35 to 45 Mbq, iv measured at 2 mins by HPLC analysis; assay type: ADME, organism-based; conditions: read-out: Stability
[20] = Metabolic stability in ICR mouse brain assessed as compound remaining at 35 to 45 Mbq, iv measured at 60 mins by HPLC analysis; assay type: ADME, organism-based; conditions: read-out: Stability
[21] = Metabolic stability in ICR mouse feces assessed as compound remaining at 35 to 45 Mbq, iv measured at 30 mins by HPLC analysis; assay type: ADME, organism-based; conditions: faeces, read-out: Stability
[22] = Metabolic stability in ICR mouse liver assessed as compound remaining at 35 to 45 Mbq, iv measured at 60 mins by HPLC analysis; assay type: ADME, organism-based; conditions: read-out: Stability
[23] = Metabolic stability in ICR mouse liver assessed as compound remaining at 35 to 45 Mbq, iv measured at 2 mins by HPLC analysis; assay type: ADME, organism-based; conditions: read-out: Stability
Brain [24] = experiment: Ratio of drug level in CD1 mouse brain at 370 kBq measured at 2 to 60 mins; assay type: ADME; conditions: in vivo
[25] = target: T1, Amyloid-beta precursor protein; experiment: Binding affinity to amyloid beta plaques in white matter of alzheimer's disease patient brain by DANIR 3b staining based autoradiographic analysis; assay type: tissue-based; conditions: tested as the 18F-labelled form
Mus musculus [26] = organism: Mus musculus; experiment: Binding affinity to amyloid beta plaques in C57BL6 mouse brain by DANIR 3b staining based autoradiographic analysis; assay type: tissue-based; conditions: tested as the 18F-labelled form
Mus musculus [27] = organism: Mus musculus; experiment: Binding affinity to amyloid beta plaques in white matter of C57BL6 APPswe/PSEN1 Tg mouse brain by DANIR 3b staining based autoradiography analysis; assay type: tissue-based; conditions: tested as the 18F-labelled form
[28] = target: T1, Amyloid-beta precursor protein; experiment: Binding affinity to amyloid beta plaques in healthy human brain by DANIR 3b staining based autoradiographic analysis; conditions: tested as the 18F-labelled form
[29] = target: T1, Amyloid-beta precursor protein; experiment: Binding affinity to amyloid beta plaques in alzheimer's disease patient cerebral cortex by DANIR 3b staining based autoradiographic analysis; assay type: tissue-based; conditions: tested as the 18F-labelled form
Mus musculus [30] = organism: Mus musculus; experiment: Binding affinity to amyloid beta plaques in C57BL6 APPswe/PSEN1 Tg mouse cerebral cortex by DANIR 3b staining based autoradiographic analysis; assay type: tissue-based; conditions: tested as the 18F-labelled form
Liver [31] = experiment: Retention time of the compound in ICR mouse liver at 35 to 45 Mbq, iv by HPLC analysis; assay type: ADME, organism-based
Plasma = experiment: Retention time of the compound in ICR mouse plasma at 35 to 45 Mbq, iv by HPLC analysis; assay type: ADME, organism-based
Mus musculus [32] = experiment: In vivo binding affinity to amyloid beta plaques in C57BL6 Appswe/PSEN1 Tg mouse cerebellum at 1 mCi, iv after 20 mins by DANIR 3b staining based autoradiographic analysis; assay type: functional, organism-based; conditions: tested as the 18F-labelled form
Mus musculus [33] = experiment: In vivo binding affinity to amyloid beta plaques in C57BL6 Appswe/PSEN1 Tg mouse hippocampus at 1 mCi, iv after 20 mins by DANIR 3b staining based autoradiographic analysis; assay type: functional, organism-based; conditions: tested as the 18F-labelled form
Mus musculus [34] = experiment: In vivo binding affinity to amyloid beta plaques in C57BL6 Appswe/PSEN1 Tg mouse brain cortex at 1 mCi, iv after 20 mins by DANIR 3b staining based autoradiographic analysis; assay type: functional, organism-based; conditions: tested as the 18F-labelled form
Mus musculus [35] = experiment: In vivo binding affinity to amyloid beta in wild type C57BL6 mouse brain cortex at 1 mCi, iv after 20 mins by DANIR 3b staining based autoradiographic analysis; assay type: functional, organism-based; conditions: tested as the 18F-labelled form
Mus musculus [36] = experiment: In vivo binding affinity to amyloid beta in wild type C57BL6 mouse hippocampus at 1 mCi, iv after 20 mins by DANIR 3b staining based autoradiographic analysis; assay type: functional, organism-based; conditions: tested as the 18F-labelled form
Mus musculus [37] = experiment: In vivo binding affinity to amyloid beta in wild type C57BL6 mouse cerebellum at 1 mCi, iv after 20 mins by DANIR 3b staining based autoradiographic analysis; assay type: functional, organism-based; conditions: tested as the 18F-labelled form

T1 sequence (P05067 whole entry): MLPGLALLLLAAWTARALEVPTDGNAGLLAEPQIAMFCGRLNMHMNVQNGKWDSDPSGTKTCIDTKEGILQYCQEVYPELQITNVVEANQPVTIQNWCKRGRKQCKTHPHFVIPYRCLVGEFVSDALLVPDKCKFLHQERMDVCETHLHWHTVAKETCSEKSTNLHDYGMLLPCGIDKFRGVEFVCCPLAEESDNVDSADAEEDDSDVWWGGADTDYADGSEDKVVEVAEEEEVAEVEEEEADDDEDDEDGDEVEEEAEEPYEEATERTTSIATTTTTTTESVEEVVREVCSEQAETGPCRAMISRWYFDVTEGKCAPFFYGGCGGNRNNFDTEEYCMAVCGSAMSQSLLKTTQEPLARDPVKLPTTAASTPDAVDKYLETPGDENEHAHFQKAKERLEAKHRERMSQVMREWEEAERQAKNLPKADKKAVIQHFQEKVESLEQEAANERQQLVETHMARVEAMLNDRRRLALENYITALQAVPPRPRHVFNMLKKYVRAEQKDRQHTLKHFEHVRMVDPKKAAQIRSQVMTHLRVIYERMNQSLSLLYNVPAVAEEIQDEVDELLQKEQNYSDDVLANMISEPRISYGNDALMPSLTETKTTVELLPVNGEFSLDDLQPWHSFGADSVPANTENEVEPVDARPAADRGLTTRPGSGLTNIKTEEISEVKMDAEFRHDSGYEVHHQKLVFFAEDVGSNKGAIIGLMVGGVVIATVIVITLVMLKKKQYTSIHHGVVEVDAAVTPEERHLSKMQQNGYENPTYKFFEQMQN

remaining at 1 h [13]: 5.1%
remaining at 0.5 h [14]: 5.8%
Ratio (Brain [15]): 5.1
remaining at 2 min [16]: 95.4%
logD [1]: 2.75
Drug uptake (Stomach [2]): 3.58 %ID
Drug uptake (Stomach [3]): 4.11 %ID
Drug uptake (Intestine [4]): 5.49 %ID
remaining at 0.5 h [17]: 9.2%
Drug uptake (Intestine [5]): 5.16 %ID
remaining at 0.5 h [18]: 31.6%
remaining at 2 min [19]: 56.5%
Drug uptake (Intestine [6]): 5.63 %ID
Drug uptake (Intestine [7]): 6.71 %ID
Drug uptake (Stomach [8]): 2.48 %ID
remaining at 1 h [20]: 14.8%
Drug uptake (Stomach [9]): 4.69 %ID
Drug uptake (Liver [10]): 6.38 % ID/g
remaining at 0.5 h [21]: 22.7%
remaining at 1 h [22]: 4.4%
Drug uptake (Brain [11]): 9.14 % ID/g
remaining at 2 min [23]: 63.5%
Structure (SMILES): CN(C)c1ccc(OCc2ccc(OCC[18F])cc2)cc1

Ki [12]: 358 nM
inhibition [12]: Dose-dependent effect
Structure (SMILES): CN(C)c1ccc(COc2ccc(OCCOCCOCCF)cc2)cc1

Ki [12]: 191 nM
inhibition [12]: Dose-dependent effect
Structure (SMILES): CN(C)c1ccc(COc2ccc(OCCOCCF)cc2)cc1

Activity [25]: inactive
Activity (Mus musculus [26]): inactive
Activity (Mus musculus [27]): inactive
Activity [28]: inactive
Ki [12]: 25.7 nM
inhibition [12]: Dose-dependent effect
Activity [29]: Active
Activity (Mus musculus [30]): Active
Structure (SMILES): CN(C)c1ccc(COc2ccc(OCCF)cc2)cc1

Retention_time (Liver [31]): 9.1 min
remaining at 2 min [16]: 76.7%
logD [1]: 3.11
Drug uptake (Stomach [2]): 0.22 %ID
Retention_time (Plasma): 9.1 min
Drug uptake (Stomach [3]): 0.54 %ID
Drug uptake (Intestine [4]): 5.52 %ID
remaining at 0.5 h [17]: 8.4%
Drug uptake (Intestine [5]): 3.12 %ID
remaining at 0.5 h [18]: 20.6%
remaining at 2 min [19]: 10.8%
Drug uptake (Intestine [6]): 2.35 %ID
Drug uptake (Intestine [7]): 1.72 %ID
Drug uptake (Stomach [8]): 0.92 %ID
remaining at 1 h [20]: 16.7%
Drug uptake (Stomach [9]): 0.37 %ID
Drug uptake (Liver [10]): 3.23 % ID/g
remaining at 0.5 h [21]: 14.6%
remaining at 1 h [22]: 10.6%
Drug uptake (Brain [11]): 4.51 % ID/g
remaining at 2 min [23]: 22.6%
Structure (SMILES): CN(C)c1ccc(COc2ccc(OCC[18F])cc2)cc1

Activity [25]: inactive
Activity (Mus musculus [26]): inactive
Activity (Mus musculus [27]): inactive
Activity [28]: inactive
Ki [12]: 21 nM
inhibition [12]: Dose-dependent effect
Activity [29]: Active
Activity (Mus musculus [30]): Active
Structure (SMILES): CN(C)c1ccc(OCc2ccc(OCCF)cc2)cc1
Activity (Mus musculus [32]): Active
Activity (Mus musculus [33]): Active
Activity (Mus musculus [34]): Active
Activity (Mus musculus [35]): inactive
Activity (Mus musculus [36]): inactive
Activity (Mus musculus [37]): inactive

logD [1]: 3.65
Drug uptake (Stomach [2]): 0.77 %ID
Drug uptake (Stomach [3]): 1.08 %ID
Drug uptake (Intestine [4]): 7.09 %ID
Drug uptake (Intestine [5]): 4.41 %ID
Drug uptake (Intestine [6]): 7.66 %ID
Drug uptake (Intestine [7]): 13 %ID
Drug uptake (Stomach [8]): 1.22 %ID
Drug uptake (Stomach [9]): 0.78 %ID
Drug uptake (Liver [10]): 7.47 % ID/g
Drug uptake (Brain [11]): 9.95 % ID/g
Structure (SMILES): COc1ccc(COc2ccc(OCC[18F])cc2)cc1

Continued, molecule first:

Structure (SMILES): COc1ccc(COc2ccc(OCCOCCOCC[18F])cc2)cc1
logD [1]: 3.04
Drug uptake (Stomach [2]): 0.9 %ID
Drug uptake (Stomach [3]): 1.1 %ID
Drug uptake (Intestine [4]): 6.3 %ID
Drug uptake (Intestine [5]): 6.18 %ID
Drug uptake (Intestine [6]): 16.43 %ID
Drug uptake (Intestine [7]): 26.12 %ID
Drug uptake (Stomach [8]): 1.53 %ID
Drug uptake (Stomach [9]): 1.52 %ID
Drug uptake (Liver [10]): 11.16 % ID/g
Drug uptake (Brain [11]): 9.71 % ID/g

Structure (SMILES): CNc1ccc(/C=C/c2ccc(OCCOCCOCCF)nc2)cc1 [FLORBETAPIR]
Ki [12]: 11.4 nM
inhibition [12]: Dose-dependent effect

Structure (SMILES): CNc1ccc(/C=C/c2ccc(OCCOCCOCC[18F])nc2)cc1 [FLORBETAPIR F 18]
Ratio (Brain [24]): 3.9

Structure (SMILES): COc1ccc(OCc2ccc(OCC[18F])cc2)cc1
logD [1]: 3.05
Drug uptake (Stomach [2]): 0.98 %ID
Drug uptake (Stomach [3]): 0.96 %ID
Drug uptake (Intestine [4]): 7.31 %ID
Drug uptake (Intestine [5]): 4.83 %ID
Drug uptake (Intestine [6]): 6.85 %ID
Drug uptake (Intestine [7]): 10.75 %ID
Drug uptake (Stomach [8]): 1.32 %ID
Drug uptake (Stomach [9]): 1.29 %ID
Drug uptake (Liver [10]): 4.97 % ID/g
Drug uptake (Brain [11]): 7.54 % ID/g

Structure (SMILES): COc1ccc(COc2ccc(OCCOCCOCCF)cc2)cc1
Ki [12]: 770 nM
inhibition [12]: Dose-dependent effect

Structure (SMILES): COc1ccc(COc2ccc(OCCF)cc2)cc1
Ki [12]: 119 nM
inhibition [12]: Dose-dependent effect

Structure (SMILES): CNc1ccc(-c2nc3ccc(O)cc3s2)cc1
inhibition [12]: Dose-dependent effect

Structure (SMILES): COc1ccc(OCc2ccc(OCCF)cc2)cc1
Ki [12]: 153 nM
inhibition [12]: Dose-dependent effect

Structure (SMILES): COc1ccc(COc2ccc(OCCOCCF)cc2)cc1
Ki [12]: 438 nM
inhibition [12]: Dose-dependent effect

Structure (SMILES): CN(C)c1ccc(-c2cn3cc(I)ccc3n2)cc1
inhibition [12]: Dose-dependent effect
